Laboratory results as given in US11731946B2, “Broad spectrum antivirulence, anti-persistence compounds” (priority 2017, dated 2023).

How the values were obtained:
[1] = system: MvfR regulon; assay: pqsA gene expression (pqsA-GFP reporter); type: cell-based, P. aeruginosa; conditions: for activity at 10 µM / activity at 50 µM: Pseudomonas aeruginosa; for activity at 10 µM: read-out: pqsA @10 uM (%), compound at 10 uM; for activity at 50 µM: read-out: pqsA @50 uM (%), compound at 50 uM
Protocol: Experiments were performed to identify compounds that inhibit the MvfR regulon without altering growth, ultimately attenuating P. aeruginosa infection. MvfR is a LysR-type transcriptional regulator that directs HAQs synthesis, including that of its ligands, 4-hydroxy-2-heptylquinoline (HHQ) and 3,4-dihydroxy-2-heptylquinoline (PQS).
MvfR promotes the production of HAQs by binding to and activating the pqs operon, which encodes enzymes for HAQ synthesis. Anthranilic acid (AA), derived from the phnAB, kynABU, and trpEG pathways, is the precursor for HAQs. pqsA encodes an anthranilate-coenzyme A ligase, which activates anthranilic acid and catalyzes the first committed step to HAQ production. The exact roles of PqsB and PqsC are unknown, though both show homology to acyl-carrier-proteins and both are required for HHQ and PQS production. […] The final gene of the operon, pqsE encodes for a putative hydrolase, and while the protein is not required for the synthesis of HAQs, it is necessary for pyocyanin production.
Nanomolar levels of most of these MvfR antagonists impeded the activity of MvfR and in consequence the MvfR virulence regulated ACRP functions, including: (1) the production of the important pro-acute P. aeruginosa virulence factor pyocyanin (see e.g., FIG. 9A) the efficacy of two of these potent inhibitors, D57 and D88, was also confirmed by testing many different MDR P. aeruginosa clinical isolates (see e.g., FIG. 11A-11B), providing further confidence of their inhibitory potency; (2) the expression of the genes that encode the enzymes catalyzing the synthesis of both pro-acute and pro-persistence MvfR-regulated virulence molecules, 4-hydroxyl-2-alkyl-quinolines (HAQs) and 2-aminoacetophenon (2-AA), as assessed by pqsAGFP reporter gene expression (see e.g., FIG. 9B) and HAQ production showing the levels of MvfR inducers/ligands HHQ and PQS as well as of the molecules critical for biofilm and Antibiotic tolerant/persiters cells formation HQNO and 2-AA (see e.g., FIG. 9C); (3) AT/P cell formation (see e.g., FIGS. 11A, 12A); (4) biofilm formation (see e.g., FIG. 12B); and (5) biofilm dispersal of preformed biofilm by potentiating antibiotic action (see e.g., FIG. 11B).

[2] = system: MvfR regulon; assay: Quantification of pyocyanin (OD520nm of chloroform-extracted cultures); type: cell-based, P. aeruginosa; conditions: for activity at 50 µM / IC50 / activity at 1 µM / activity at 10 µM: Pseudomonas aeruginosa; for activity at 50 µM: read-out: pyocyanin @50 uM (%), compound at 50 uM; for IC50: read-out: IC50 pyocyanin (μM); for activity at 1 µM: read-out: pyocyanin @1 uM (%), compound at 1 uM; for activity at 10 µM: read-out: pyocyanin @10 uM (%), compound at 10 uM
[3] = compound at 50 uM, listed as D1

SMILES	activity at 10 µM [1] [%]	activity at 50 µM [2] [%]	activity at 50 µM [1] [%]	IC50 [2] [µM]	activity at 1 µM [2] [%]	activity at 10 µM [2] [%]	pqsA @50 uM (%) [1, 3] [%]	pyocyanin @50 uM (%) [2, 3] [%]
Nc1cc([N+](=O)[O-])ccc1NC(=O)CC(=O)Nc1ccc(Oc2ccccc2)cc1 [Compound 75]	9.83	6.13						
CC(=O)c1ccccc1NC(=O)CNc1ccc(F)cc1C [Compound 42]		91.4	94.2					
O=C(CC(=O)Nc1ccc(Oc2ccccc2)cc1)Nc1ccc(F)cc1 [Compound 83]	27.7	33.5		0.83	44.7	41.3		
N#Cc1ccc(NC(=O)C(F)(F)C(=O)Nc2ccc(C#N)cc2)cc1 [Compound 112]	95.4	93.6	95.1		101	87.1		
Cc1cc(F)ccc1NCC(=O)Nc1ccccc1Br [Compound 14]		101	96.2					
N#Cc1ccc(NC(=O)CC(=O)Nc2cccc(C#N)c2)cc1 [Compound 90]	97.2	49.4			91.8	88.5		
CC(=O)Nc1cccc(NCC(=O)Nc2ccc(C#N)cc2)c1C [Compound 39]		93.4	99.5					
Cc1cc(F)ccc1NCC(=O)Nc1ccc(N2CCCC2=O)cc1 [Compound 21]		107	105					
Cc1ccc(NC(=O)CNc2ccc(F)cc2C)c(Br)c1 [Compound 24]		108	92.3					
Cc1cc(F)ccc1NC(C)C(=O)Nc1ccc(C#N)cc1 (centres unmarked) [Compound 13]							88.58	101.56
COc1cccc(NC(=O)CNc2ccc(F)cc2C)c1 [Compound 44]		92.2	93.7					
Cc1ccc(NC(=O)CNc2ccc(F)cc2C)c(C)c1 [Compound 33]		112	87.3					
N#Cc1ccc2c(c1)OCCN2C(=O)CC(=O)Nc1ccc(Oc2ccccc2)cc1 [Compound 105]	47.3	11.4		2.78	68	32		
N#Cc1ccc(NC(=O)CC(=O)Nc2ccc(C#N)nc2)cn1 [Compound 106]	80	43.1	38.9		90	75.6		
N#Cc1ccc(NC(=O)CC(=O)Nc2ccccc2Br)cc1 [Compound 55]	94	86.3			99	70.7		
N#Cc1ccc(NCC(=O)Nc2ccc(F)cc2)cc1 [Compound 36]		59.1	25.5					
Cc1ccccc1NCC(=O)Nc1ccccc1 [Compound 38]		102	95.4					
CC(F)(C(=O)Nc1ccc(C#N)cc1)C(=O)Nc1ccc(C#N)cc1 [Compound 109]	87	51.5	84.9		98.6	78.2		
Cc1cc(F)ccc1NCC(=O)Nc1ccc(N2CCOCC2)cc1 [Compound 17]		102	99.8					
CN(C(=O)CC(=O)Nc1ccc(C#N)cc1)c1ccc(C#N)cc1 [Compound 89]	98.5	84.8			95.7	102		
O=C(CC(=O)Nc1ccc(Oc2ccccc2)cc1)Nc1ccc(Cl)cc1 [Compound 82]	28.8	26		0.09	40.3	39.9		
N#Cc1ccc(NC(=O)CC(=O)Nc2ccc(C#N)nc2)cc1 [Compound 92]	25.4	6.8		1.61	64.5	13.9		
N#Cc1ccc(NC(=O)CS(=O)(=O)Nc2ccc(C#N)cc2)cc1 [Compound 96]	118	111			97.3	109		
Cc1cc(F)ccc1NCC(=O)NCC(F)(F)F [Compound 29]		110	70					
